Drawing on a melting point compilation (Tetko et al.; mined from patent text by program, amines drawn as free bases though some values may be those of a salt), this text covers melting point for 86 compounds.

For orientation: melting point means the temperature of the solid-liquid transition. For the compound `CN(C)c1ncc2c(=O)n(CCN3CCCCC3)sc2n1`, the melting point was 128 to 129 °C. Then `CCCn1cc2c(C3C(=O)Nc4ccc(Br)cc43)nc(NCCCN(C)C)nc2n1` (stereo unspecified), with 286 to 290 °C; and `Cc1ccc(C)c(C(=O)c2ccccc2)c1O`, with 111 to 114 °C; and `COc1ccc(Cl)cc1C(=O)NCCc1ccc(-c2cc(C)cs2)c(S(N)(=O)=O)c1`, with 165 to 168 °C. The result for `O=C(O)c1cccc(-c2cccc(OCCc3ccc(Cl)cc3Cl)n2)c1` reads 199 to 200 °C; that for `Cc1cc([N+](=O)[O-])ccc1N1CCOCC1`, 147 to 150 °C; that for `Clc1ccc2cc3ccccc3cc2c1`, 220 to 221 °C.

As to `CCn1cc(C(=O)NCCCN(C)C)c(=O)c2ccc(I)cc21`, the melting point was in the range of 161 to 162 °C. Then `Cc1ccc(CS(=O)c2nc3cc4c(cc3[nH]2)OC(F)(F)O4)nc1` (stereo unspecified), with 206 to 208 °C; and `COc1ccc(S(=O)(=O)N2CSC(C)(C)[C@@H]2C(=O)NO)cc1`, with 68 to 71 °C. As for `COc1ccc([N+](=O)[O-])c2nccc(Cl)c12`, the melting point was in the range of 125 to 138 °C. The result for `COc1cccc(OC2COc3ccc(OCc4ccc5ccccc5n4)cc3C2O)c1` (stereo unspecified) reads 128 to 129 °C; that for `CC#CCOc1ccc(S(=O)(=O)C2(C(=O)O)CCN(Cc3ccc(C)cc3)CC2)cc1`, 188 °C. The result for `O=C1CCC(N2C(=O)c3cccc(NC(=O)c4cccc(F)c4)c3C2=O)C(=O)N1` (stereo unspecified) reads 260 to 262 °C. The result for `CC(=O)Nc1ccc(Nc2ncnc3[nH]cc(C(=O)c4ccccc4)c23)cc1` reads 263 to 264 °C. In turn, `Cc1oc(C=Cc2ccc(Cl)cc2)nc1CC(=O)O` gave a melting point of 157 to 158 °C.

`CCCNC(C)=C1C(=O)OC(=O)C(C(=O)C=Cc2cccc(OC)c2OC)=C1O` came in with a melting point of 180 to 185 °C. Turning to `CCN(CC)C(=O)Cc1c(-c2ccc(OC)cc2)nc2c(C)cc(C)nn12`, the melting point lay in the range of 129 to 131 °C. Then `N#CCc1cccc(CO)c1[N+](=O)[O-]`, with 60 to 62 °C; and `COc1ccc(NC(=O)c2ccc([N+](=O)[O-])cc2)c(OC)c1`, with 172 to 174 °C; and `CC1=NNC(=O)N(N)C1`, with 117 to 119 °C. The result for `COc1ccc([C@@H]2O[C@H](CCC(=O)O)C(=O)N(Cc3ccccc3)c3ccccc32)cc1` (relative stereo) reads 107 to 109 °C; that for `CC(C)C[C@@H](CC=O)NC(=O)[C@H](Cc1c[nH]cn1)NC(=O)[C@H](Cc1ccccc1)NC(=O)OCc1ccccc1`, 173 to 175 °C.

Compound `COc1cc(C(=O)NS(=O)(=O)c2ccccc2C)ccc1Cc1cn(C(=O)NC(c2ccccc2)c2ccccc2)c2ccc(NC(=O)OC3CCCC3)cc12` yielded a melting point of 253 to 254 °C. The result for `CCOC(=O)c1cccn1Cc1ccc(Cl)cc1N` reads 104 to 107 °C; that for `COC(=O)C(Cc1ccc(OC)c(C(=O)NCc2ccc(C(F)(F)F)cc2)c1)SC` (stereo unspecified), 127 to 128 °C. `CCCOc1ccc(C(=O)OC)cc1-c1ccc(C#N)c(=O)[nH]1`: the melting point was in the range of 201 to 203 °C. `Cc1nc(N2CCCC2)nc(C)c1-c1cccc2c1OC[C@H]2Nc1ccc2c(c1)OC[C@H]2CC(=O)O` came in with a melting point of 169 °C. On to `O=S(=O)(Nc1cc(Cl)cc(Cl)c1)c1cc(S(=O)(=O)Nc2cc(Cl)cc(Cl)c2)c2cc(O)ccc2c1`, for which the melting point was in the range of 122 to 124 °C. Then `CS(=O)(=O)c1ccc(-c2cccn2-c2ccc(F)c(F)c2)cc1`, with 137 to 139 °C; and `Cc1cccc2c1N(CCN(C(C)C)C(C)C)C(=O)/C2=N/NC(N)=O`, with 194 to 195 °C; and `O=C(O)Cc1nn(Cc2nc3cc(Br)ccc3s2)c(=O)c2ccccc12`, with 214 °C. Regarding `CCc1nccn1CCCOCc1cccc(SC)c1NC(=O)CC1c2ccccc2Oc2ccccc21`, the melting point was 159 to 160 °C. Then `NC(=O)N(O)CC(=O)Nc1cccc(OCc2ccccc2)c1`, with 177 to 178 °C. The result for `O=C(Cc1ccc(C(F)(F)F)cc1)c1ccc(F)cc1` reads 93 to 95 °C; that for `CCOC(=O)Nc1ccc(Br)cc1F`, 72 to 73 °C. Then `Cc1cccc(Cn2ncc3c(N4CCN(C(=O)OC(C)(C)C)CC4)ncnc32)c1`, with 130 to 131 °C; and `NC(=O)CCC1OC(=O)NC1c1cc(F)c(-n2nnc(Cc3cccs3)n2)c(F)c1` (stereo unspecified), with 142 to 144 °C. As for `CC12CCC(OC(=O)c3ccc(N)cc3)CC1=CCC1C2CCC2(C)C(=NO)CCC12` (stereo unspecified), the melting point was 165 to 168 °C.

Compound `CC(C)(C)OC(=O)N1CCN(c2cccc(Cl)c2/C=N/NS(=O)(=O)c2ccccc2)CC1` registered a melting point of 162 to 165 °C.

Compound `Nc1nc2ccc(S(=O)(=O)n3c(CCC(=O)O)cc4cc(Cl)ccc43)cc2o1` had a melting point of 242 to 249 °C. The result for `O=C(Cc1ccc(Cl)c(Cl)c1)N1CCCC2CCCC(N3CCCC3)C21` (stereo unspecified) reads 82 to 84 °C; that for `C=CC(=O)NC1=NN(c2c(Cl)cc(Cl)cc2Cl)C(=O)C1c1cc[nH]n1` (stereo unspecified), 151 to 154 °C; that for `CCOC(=O)c1c(C)[nH]c2ccc(OC[C@@H](O)CN)cc12`, 66 to 68 °C.

`COC(=O)CNS(=O)(=O)c1ccc(CCN2CC=C(c3c[nH]c(-c4ccc(F)cc4)c3-c3ccncc3)CC2)cc1` showed a melting point of 220 to 223 °C. Then `CC(=O)Nc1cc(Cn2c(C(=O)c3cc(C)cc(C)c3)c(C(C)C)c(=O)[nH]c2=O)ccn1`, with 244 to 245 °C. Then `Clc1ccc2[nH]nc(I)c2c1`, with 198 to 199 °C.

`CC(=O)CSc1ccc(Cl)cc1C(=O)O`: the melting point was in the range of 139 to 140 °C.

In turn, `CCOCCn1c(C2CCN(C)C(c3ccc(C(C)(C)C)cc3)C2)nc2ccccc21` (stereo unspecified) displayed a melting point of 51 to 53 °C. Then `CC(C)(C)c1cc(-c2nn(CC(=O)N3CCOCC3)c3ncccc23)cc(C(C)(C)C)c1O`, with 207 to 209 °C; and `CS(=O)(=O)c1ccc(-c2cnn(-c3ccc(F)cc3)c(=O)c2N2CCCC2)cc1`, with 192 to 195 °C. The result for `COc1ccn(-c2nc(C)c(C(=O)NCc3ccccc3)s2)c(=O)c1` reads 205 to 208 °C; that for `O=C(CCCN1CCC(c2ccc(Cl)cc2)CC1)c1ccc2c(c1)CCN(Cc1ccccc1)CC2`, 99 to 100 °C. Then `O=C1N(Cc2ccc(C(F)(F)F)o2)c2cc3c(cc2C12COc1cc4c(cc12)OCCO4)OCCO3` (stereo unspecified), with 176 to 178 °C. With `COC(=O)NC=Cc1ccc(OCC2CO2)c(OC)c1` (stereo unspecified), the melting point lay in the range of 122 to 123 °C. Then `Cn1nc(Cl)c(Cl)cc1=O`, with 97 °C; and `Cc1nc(NC(=O)c2cnn3c(C(F)(F)F)cc(-c4ccc(C(F)(F)F)cc4)nc23)sc1S(=O)(=O)N1CCC(O)C1` (racemic), with 300 °C; and `CC(=O)c1cc(CS(C)=O)ccc1O` (stereo unspecified), with 95 to 97 °C. The result for `FC(F)(F)c1ccc2c(c1)Sc1ccccc1NC2=S` reads 236 to 239 °C; that for `CCCCCCCNC(=O)Oc1ccc2c(c1)c(C)cn2NCCCc1ccncc1F`, 90 to 93 °C. In the case of `O=[N+]([O-])c1ccc(S(=O)(=O)CCCl)cc1`, the melting point came to 130 °C.

As to `C=CCSC(C(=O)NC(C)=O)C(c1ccccc1)(c1ccccc1)c1ccccc1` (stereo unspecified), the melting point was in the range of 193 to 194 °C. `O=c1c(-c2ccccc2)c(CSc2ncnc3[nH]cnc23)oc2ccc(Br)cc12` displayed a melting point of 214 to 218 °C. The result for `COc1cccc(C=C2SC(=S)NC2=O)c1OC` reads 268 to 269 °C; that for `Cc1ccc(C2C(=O)Oc3c2cc(C(C)(C)C)cc3C(C)(C)C)cc1C` (stereo unspecified), 130 to 132 °C.

For the compound `CC(C)(C)OC(=O)N[C@H](Cc1ccccc1)C(=O)N1CCC[C@H]1C(=O)NC(Cc1ccc(C#N)cc1)P(=O)(Oc1ccccc1)Oc1ccccc1` (stereo partly specified), the melting point was in the range of 85 to 90 °C. The result for `C=CCC(NC(=O)C(C)(C)C)C(=O)O` (stereo unspecified) reads 87 to 88 °C; that for `CC(C)(C)OC(=O)[C@H](CCC(=O)N1CCC2(CCN(Cc3ccccc3)CC2)CC1)NS(=O)(=O)c1ccccc1`, 134 to 136 °C; that for `CCc1cc2c(=O)n3cc(C(=O)OC)ccc3nc2s1`, 151 to 152 °C. Then `CC(C)C1(C)N=C(c2ncc(C=O)cc2C(=O)O)NC1=O` (stereo unspecified), with 187 to 198 °C; and `CCCCOC(=O)C1C(C(C)=O)C(=O)N1C(Cc1ccc(OC)cc1)Cc1ccc(OC)cc1` (stereo unspecified), with 92.5 to 94 °C; and `Cc1cccc(Nc2cc(Nc3ccc(OCCO)cc3)ncn2)c1`, with 196 to 199 °C. The result for `O=C(O)c1ccc(NCCc2ccccc2)cc1` reads 123 to 125 °C; that for `OC1CSC(Oc2cccc(-c3cccnc3)n2)C(O)C1O` (stereo unspecified), 179 °C; that for `COc1ccc(N2CCN(c3c(C)c4c(c(OC(C)C)c3C)OC(C)C4)CC2)cc1` (stereo unspecified), 110 to 112 °C. The compound `N#Cc1cnc2cc(-c3ccc(CCN4CCOCC4)s3)ccc2c1Nc1ccc(Cl)cc1Cl` gave a melting point of 168 to 169 °C. `CCOC(=O)C(C(=O)OCC)C(NC(C)=O)[PH](=O)O` (stereo unspecified): the melting point lay in the range of 113 to 114 °C. Then `Cc1cc(C2=NOC(c3cc(Cl)cc(Cl)c3)(C(F)(F)F)C2)ccc1Cl` (stereo unspecified), with 110 to 111 °C. The compound `COc1ccc(C(=O)Nc2cc(-c3c(-c4cccc(C)c4)nc4cccnn34)ccn2)cc1` came in with a melting point of 177 to 178 °C. The result for `COc1ccc(OC)c(-c2c(C(C)C)cc(C(C)C)cc2C(C)C)c1I` reads 189 to 191 °C; that for `O=C(NS(=O)(=O)C=Cc1ccccc1)N1CCCC1`, 201 to 204 °C; that for `CCc1nc2ccc(Cc3ccc(C(=O)NO)cc3)cc2c(=O)n1CCc1ccccc1`, 181 to 183 °C. Turning to `CC1(c2ccccc2)OC(=O)Nc2ccc(-c3cccc(Cl)c3)cc21` (stereo unspecified), the melting point was 179 to 180 °C. The result for `OC1(C2=NCCCN2)c2ccccc2-c2ccccc21` reads 242 to 245 °C.

With `CCC(CC)c1ccc(C#N)c2nc(Oc3ccc(Cl)cc3Br)n(C)c12`, the melting point was 136 to 137 °C. As for `O=C(O)COc1ccc(OC2CCN(c3ccncc3)CC2)cc1`, the melting point fell in the range of 288 to 291 °C.
